How the values were obtained:
[1] = Cytotoxicity against human MDA-MB-435 cells assessed as growth inhibition after 48 hrs by MTT assay; type: functional; settings: MDA-MB-435, 48 h
[2] = target: Mitogen-activated protein kinase kinase kinase kinase 4 (Homo sapiens, UniProt O95819); experiment: Inhibition of recombinant human HGK using Ulight-FLGFTYVAP as substrate after 90 mins by LANCE assay
Mitogen-activated protein kinase kinase kinase kinase 4, sequence (O95819 whole entry): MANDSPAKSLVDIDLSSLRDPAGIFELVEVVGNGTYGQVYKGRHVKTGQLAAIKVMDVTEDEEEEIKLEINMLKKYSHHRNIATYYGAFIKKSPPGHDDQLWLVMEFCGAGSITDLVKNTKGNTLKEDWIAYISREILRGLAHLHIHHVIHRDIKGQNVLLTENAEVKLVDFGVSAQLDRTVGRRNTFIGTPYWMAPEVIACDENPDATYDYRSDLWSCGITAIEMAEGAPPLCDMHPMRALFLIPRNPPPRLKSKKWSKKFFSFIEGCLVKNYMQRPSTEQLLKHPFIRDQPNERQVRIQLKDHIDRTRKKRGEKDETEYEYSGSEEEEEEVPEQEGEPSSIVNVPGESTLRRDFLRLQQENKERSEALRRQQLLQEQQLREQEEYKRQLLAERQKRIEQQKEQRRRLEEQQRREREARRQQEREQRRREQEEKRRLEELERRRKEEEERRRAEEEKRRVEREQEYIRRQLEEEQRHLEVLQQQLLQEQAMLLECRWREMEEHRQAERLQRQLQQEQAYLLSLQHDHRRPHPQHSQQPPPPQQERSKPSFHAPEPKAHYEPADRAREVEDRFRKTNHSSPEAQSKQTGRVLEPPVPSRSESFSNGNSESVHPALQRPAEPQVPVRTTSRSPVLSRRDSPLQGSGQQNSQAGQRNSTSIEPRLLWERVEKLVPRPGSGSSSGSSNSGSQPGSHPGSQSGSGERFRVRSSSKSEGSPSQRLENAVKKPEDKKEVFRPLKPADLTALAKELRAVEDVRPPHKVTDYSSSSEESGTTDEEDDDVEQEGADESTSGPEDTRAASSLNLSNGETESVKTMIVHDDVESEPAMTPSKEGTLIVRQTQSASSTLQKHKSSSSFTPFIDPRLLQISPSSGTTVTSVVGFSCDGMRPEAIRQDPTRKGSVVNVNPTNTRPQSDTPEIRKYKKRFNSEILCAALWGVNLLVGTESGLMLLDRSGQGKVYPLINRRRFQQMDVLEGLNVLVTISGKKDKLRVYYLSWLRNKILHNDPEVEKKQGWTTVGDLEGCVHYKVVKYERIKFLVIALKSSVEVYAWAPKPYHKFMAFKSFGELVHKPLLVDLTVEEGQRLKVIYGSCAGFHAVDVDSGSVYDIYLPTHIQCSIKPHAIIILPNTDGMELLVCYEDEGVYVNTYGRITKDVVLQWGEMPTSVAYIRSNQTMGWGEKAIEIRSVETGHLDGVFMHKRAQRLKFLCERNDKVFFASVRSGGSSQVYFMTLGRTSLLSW

Structure (SMILES): C[C@H]1NC(c2ccc(Br)cc2)=Nc2nc3ccccn3c2C1=O
- GI50 [1]: > 100 µM
- IC50 [2]: > 100 µM

Structure (SMILES): Cc1ccccc1C1=Nc2nc3ccccn3c2C(=O)[C@H](C)N1
- GI50 [1]: > 10 µM

Structure (SMILES): COc1ccc(C2=Nc3nc4ccccn4c3C(=O)[C@H](C)N2)cc1OC
- GI50 [1]: > 10 µM

Structure (SMILES): C[C@@H]1NC(c2ccc(C#N)cc2)=Nc2nc3ccccn3c2C1=O
- GI50 [1]: > 10 µM

Structure (SMILES): C[C@@H]1NC(c2ccc(-c3ccccc3)cc2)=Nc2nc3ccccn3c2C1=O
- GI50 [1]: 40 µM
- IC50 [2]: > 100 µM

Structure (SMILES): C[C@H]1C(=O)c2c(nc3ccccn23)N=C(c2ccc(Br)cc2)N1C
- GI50 [1]: > 10 µM

Structure (SMILES): C[C@@H]1NC(c2ccccc2Br)=Nc2nc3ccccn3c2C1=O
- GI50 [1]: 8.35 µM

Structure (SMILES): O=C1CNC(c2ccc(Br)cc2)=Nc2nc3ccccn3c21
- GI50 [1]: > 10 µM

Structure (SMILES): C[C@@H]1NC(c2ccc(C(F)(F)F)cc2)=Nc2nc3ccccn3c2C1=O
- GI50 [1]: > 10 µM

Structure (SMILES): CC[C@@H]1NC(c2ccc(Br)cc2)=Nc2nc3ccccn3c2C1=O
- GI50 [1]: 1 µM

Structure (SMILES): NCCCC[C@@H]1NC(c2ccc(Br)cc2)=Nc2nc3ccccn3c2C1=O
- GI50 [1]: > 10 µM

Structure (SMILES): O=C(NCCCC[C@@H]1NC(c2ccc(Br)cc2)=Nc2nc3ccccn3c2C1=O)OCc1ccccc1
- GI50 [1]: > 10 µM

Structure (SMILES): CC(=O)Nc1ccc(C2=Nc3nc4ccccn4c3C(=O)[C@H](C)N2)cc1
- GI50 [1]: 10 to 100 µM
- IC50 [2]: > 100 µM

Structure (SMILES): C[C@@H]1NC(c2cccc(Cl)c2)=Nc2nc3ccccn3c2C1=O
- GI50 [1]: 10 µM

Structure (SMILES): C[C@@H]1NC(c2ccc(Br)cc2)=Nc2nc3ccccn3c2[C@H]1O
- GI50 [1]: > 10 µM

Structure (SMILES): CNC(=O)c1ccc(C2=Nc3nc4ccccn4c3C(=O)[C@H](C)N2)cc1
- GI50 [1]: > 10 µM

Structure (SMILES): C[C@@H]1NC(c2ccc(F)cc2)=Nc2nc3ccccn3c2C1=O
- GI50 [1]: > 10 µM

Structure (SMILES): C[C@@H]1NC(c2cccc(Br)c2)=Nc2nc3ccccn3c2C1=O
- GI50 [1]: > 10 µM

Structure (SMILES): C[C@@H]1NC(c2ccc(Cl)c(C(F)(F)F)c2)=Nc2nc3ccccn3c2C1=O
- GI50 [1]: > 10 µM

Structure (SMILES): C[C@@H]1NC(c2ccc(I)cc2)=Nc2nc3ccccn3c2C1=O
- GI50 [1]: 1.35 µM

Structure (SMILES): CCOC(=O)c1ccc(C2=Nc3nc4ccccn4c3C(=O)[C@H](C)N2)cc1
- GI50 [1]: > 10 µM

Structure (SMILES): CC(C)[C@@H]1NC(c2ccc(Br)cc2)=Nc2nc3ccccn3c2C1=O
- GI50 [1]: 50 µM
- IC50 [2]: 44 µM

Structure (SMILES): C[C@@H]1NC(c2cccc3ccccc23)=Nc2nc3ccccn3c2C1=O
- GI50 [1]: 1.4 µM

Structure (SMILES): C[C@@H]1NC(c2ccccc2Cl)=Nc2nc3ccccn3c2C1=O
- GI50 [1]: 6.5 µM

Structure (SMILES): O=C1c2c(nc3ccccn23)N=C(c2ccc(Br)cc2)N[C@H]1CO
- GI50 [1]: 0.95 to 1 µM

Source: ChEMBL document CHEMBL3877299, “Imidazopyridine-fused [1,3]-diazepinones part 2: Structure-activity relationships and antiproliferative activity against melanoma cells” (Eur J Med Chem, 2017)
